For 1 compound, IC50 results are on record in article PMC4030036, “Small molecule kinase inhibitor LRRK2-IN-1 demonstrates potent activity against colorectal and pancreatic cancer through inhibition of doublecortin-like kinase 1” (Molecular Cancer, 2014).

Experiment [1] has as its target T1, Doublecortin-like kinase 1 (DCLK1) (Homo sapiens, UniProt O15075).
T1 sequence (O15075 1-740): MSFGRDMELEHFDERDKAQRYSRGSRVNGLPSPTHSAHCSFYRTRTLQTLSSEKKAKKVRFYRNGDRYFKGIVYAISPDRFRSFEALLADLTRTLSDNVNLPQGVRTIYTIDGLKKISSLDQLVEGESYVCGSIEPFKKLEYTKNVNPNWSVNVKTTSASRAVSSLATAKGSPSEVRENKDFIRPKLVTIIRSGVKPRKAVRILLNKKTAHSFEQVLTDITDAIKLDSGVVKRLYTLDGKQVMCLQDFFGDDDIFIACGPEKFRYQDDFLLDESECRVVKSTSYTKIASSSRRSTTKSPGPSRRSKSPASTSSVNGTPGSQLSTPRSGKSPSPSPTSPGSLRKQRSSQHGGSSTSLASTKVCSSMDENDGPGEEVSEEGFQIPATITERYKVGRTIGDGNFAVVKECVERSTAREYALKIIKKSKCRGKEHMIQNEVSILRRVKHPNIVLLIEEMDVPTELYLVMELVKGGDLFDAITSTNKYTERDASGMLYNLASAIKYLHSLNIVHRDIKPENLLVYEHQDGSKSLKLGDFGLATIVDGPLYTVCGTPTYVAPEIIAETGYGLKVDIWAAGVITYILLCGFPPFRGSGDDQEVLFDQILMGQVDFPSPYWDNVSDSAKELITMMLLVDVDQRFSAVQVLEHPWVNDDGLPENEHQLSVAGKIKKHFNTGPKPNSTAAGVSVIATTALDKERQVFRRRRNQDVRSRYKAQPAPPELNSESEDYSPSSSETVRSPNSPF
The experiment in a line: in vitro kinase assay (Kinase-Glo luminescence) with purified active DCLK1, autocamtide II substrate and […] ATP. The format is biochemical.

Experiment [2] relates to MiaPaCa-2. Nature of the experiment: cells. Particulars: Homo sapiens, MIA PaCa-2; 48 h MTT. Further details: MTT proliferation assay, sigmoidal dose-response fit, colon and pancreatic cancer cell lines.
Experiment [3] deals with SW1990. Nature of the experiment: cells. Further details: MTT proliferation assay, sigmoidal dose-response fit, colon and pancreatic cancer cell lines. As to conditions: Homo sapiens, SW1990; 48 h MTT.
The subject of experiment [4] is HT-29. Nature of the experiment: cells. Also noted: MTT proliferation assay, sigmoidal dose-response fit, colon and pancreatic cancer cell lines. As to conditions: Homo sapiens, HT-29; 48 h MTT.
Experiment [5] relates to DLD-1. Nature of the experiment: cells. As to conditions: Homo sapiens, DLD-1; 48 h MTT. Also noted: MTT proliferation assay, sigmoidal dose-response fit, colon and pancreatic cancer cell lines.

Turning to `COc1cc(C(=O)N2CCC(N3CCN(C)CC3)CC2)ccc1Nc1ncc2c(n1)N(C)c1ccccc1C(=O)N2C` [LRRK2-IN-1], the IC50 in experiment [1] turned out to be 2.61 nM; in experiment [2] it was 2010 nM; in experiment [3] it was 5190 nM; in experiment [4] it was 2070 nM; in experiment [5], 3220 nM.
